Publication PMC2642990, “The Glycogen-Binding Domain on the AMPK β Subunit Allows the Kinase to Act as a Glycogen Sensor” (Cell Metabolism, 2009)

Columns and labels:
native rat liver AMPK = native rat liver AMPK (Rattus norvegicus, UniProt P80386); assay: AMPK kinase assay (SAMS peptide), native rat liver AMPK in solution; assay type: biochemical; conditions: oligosaccharides; read-out: IC50 / half-maximal effect, inhibition of AMPK
Protocol: We next tested the effect of glycogen on the activity of the native AMPK complex purified from rat liver ([Hawley et al., 1996]). […] The bovine liver glycogen inhibited AMPK completely with an IC50 (concentration causing half-maximal inhibition) of 30 ± 9 mM glucose equivalents (Figure 2A).
Figure 2 Allosteric Inhibition of AMPK by Different Glycogen Preparations (A) Concentration dependence of inhibition of native rat liver AMPK by preparations of bovine and rat liver glycogen; glycogen concentrations expressed as glucose produced after total hydrolysis. Data were fitted to an IC50 equation (see Supplemental Experimental Procedures), and curves were generated using the estimated best-fit parameters. (B) Concentration dependence of inhibition of native rat liver AMPK by bovine liver glycogen in the presence and absence of 200 μM AMP; curves were generated as in (A). (C) Inhibition by bovine liver glycogen of recombinant AMPK complex (myc-α1:β1:γ1) containing full-length (1–270) or truncated β1 subunit lacking the GBD (172–270). Complexes were expressed in CCL13 cells and purified by immunoprecipitation prior to assay with or without glycogen (200 mM glucose equivalents). Data are means ± SEM (n = 3). ^∗Activity different from control without glycogen by t test (p < 0.05). (D) Inhibition by bovine liver glycogen (200 mM glucose equivalents) of purified, native rat liver AMPK (a mixture of α1β1γ1 and α2β1γ1 complexes) that had been recovered by immunoprecipitation (IP) using anti-α1, anti-α2, or a mixture of anti-α1/-α2 antibodies or assayed in solution without immunoprecipitation. Results are expressed as percentages of the activity in controls without glycogen, and data are mean ± SEM (n = 3). (E) Absorption spectra of bovine and rat liver glycogen preparations in complex with iodine. […]
Purification of Native Rat Liver, AMPK, Recombinant AMPK, and AMPK Assays AMPK was purified from rat liver as far as the gel filtration step (Hawley et al., 1996). The kinase was assayed using the SAMS peptide (Davies et al., 1989). IC50 values for inhibition were estimated by fitting data using GraphPad Prism to the equation: Activity = Residual + Maximum - (Maximum × [Inhibitor]/(IC50+[Inhibitor])) where Residual is the activity in the presence of maximal inhibition, Maximum is the maximal inhibition and [inhibitor] is the concentration of the inhibitory molecule. For recombinant AMPK, constructs encoding myc-tagged α1, β1 and γ1 subunits of AMPK were co-transfected into CCL13 cells using modifications of previous methods (Woods et al., 1996). DNA (10 µg) was dissolved in sterile water (450 µl) to which 50 μl of 2.5 M CaCl2 was added, and the solution vortexed for 1 min. […]

[1] = molecular target: T1, rat AMPK-α1 kinase domain (Rattus norvegicus, UniProt P54645, T183D); assay: kinase assay of bacterially expressed α1 kinase domain; assay type: biochemical; conditions: bacterially expressed (GST fusion; T172D mutant); data not shown
T1 construct: a bacterially expressed GST fusion of the rat AMPK-α1 kinase domain; GST; made in house; host or cells: bacteria
T1 sequence (P54645 27-279 T183D): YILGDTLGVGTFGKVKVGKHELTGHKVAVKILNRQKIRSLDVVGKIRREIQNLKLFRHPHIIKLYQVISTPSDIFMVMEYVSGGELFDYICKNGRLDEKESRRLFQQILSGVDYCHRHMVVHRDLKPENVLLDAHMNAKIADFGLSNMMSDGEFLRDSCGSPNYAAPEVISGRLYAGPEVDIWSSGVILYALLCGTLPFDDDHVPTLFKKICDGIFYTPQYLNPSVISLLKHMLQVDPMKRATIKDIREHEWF

β1-GBD = molecular target: T2, β1-GBD (Rattus norvegicus, UniProt P80386); assay: capture of glycogen hydrolysate fragments on GST-β1 GBD affinity column; assay type: binding; conditions: from partial acid hydrolysate of bovine liver glycogen; eluted with propionic acid
T2 construct: The rat β1 GBD (residues 70-172 was cloned into pGEX6P2, expressed in Escherichia coli (BL21)); made in house; host or cells: E. coli BL21
T2 sequence (P80386 70-172): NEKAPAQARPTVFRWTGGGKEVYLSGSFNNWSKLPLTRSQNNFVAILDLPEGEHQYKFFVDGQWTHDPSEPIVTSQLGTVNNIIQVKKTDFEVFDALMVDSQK
Text: In an attempt to establish the chemical nature of the regions of glycogen that bind to the GBD and cause inhibition of the AMPK complex, we carried out partial acid hydrolysis of bovine liver glycogen and utilized the β1 GBD as an affinity matrix to purify hydrolysis products that bound to the GBD. The hydrolysis conditions were chosen to yield a range of oligosaccharides containing up to six glucose units, as detected by high-performance anion exchange chromatography (HPAEC). The hydrolysate was passed down a glutathione Sepharose column to which the GST-GBD had been prebound, and bound oligosaccharides eluted with propionic acid. The eluted oligosaccharides were analyzed by HPAEC (Figure 5A). […] That this disaccharide contained glucose was confirmed by collision-induced dissociation and tandem mass spectrometry (Figure 5B); the product ion spectrum contained a daughter peak at 203, corresponding to the mass of glucose plus one Na^+ ion. […]
To 60 μl of the material from HPAEC, 5 μl of 80% (v/v) acetonitrile plus 2% (v/v) formic acid was added. Small aliquots of this solution were transferred to Waters nanotips (Type F; Millipore, Watford, UK) and analyzed by electrospray ionization–mass spectrometry (ES-MS) in negative ion mode on an ABI Q-StarXL spectrometer (Applied Biosystems, Cambridge, UK). […]

native rat liver AMPK, sequence (P80386 2-270): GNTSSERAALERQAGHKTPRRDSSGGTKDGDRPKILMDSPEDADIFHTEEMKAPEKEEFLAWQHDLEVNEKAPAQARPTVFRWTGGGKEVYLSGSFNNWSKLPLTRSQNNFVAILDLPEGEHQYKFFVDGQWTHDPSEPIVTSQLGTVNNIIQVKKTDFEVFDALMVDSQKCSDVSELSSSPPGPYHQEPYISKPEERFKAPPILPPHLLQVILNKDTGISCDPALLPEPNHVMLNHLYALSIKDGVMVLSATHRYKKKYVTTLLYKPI
native rat liver AMPK, sequence (P54645 whole entry partner): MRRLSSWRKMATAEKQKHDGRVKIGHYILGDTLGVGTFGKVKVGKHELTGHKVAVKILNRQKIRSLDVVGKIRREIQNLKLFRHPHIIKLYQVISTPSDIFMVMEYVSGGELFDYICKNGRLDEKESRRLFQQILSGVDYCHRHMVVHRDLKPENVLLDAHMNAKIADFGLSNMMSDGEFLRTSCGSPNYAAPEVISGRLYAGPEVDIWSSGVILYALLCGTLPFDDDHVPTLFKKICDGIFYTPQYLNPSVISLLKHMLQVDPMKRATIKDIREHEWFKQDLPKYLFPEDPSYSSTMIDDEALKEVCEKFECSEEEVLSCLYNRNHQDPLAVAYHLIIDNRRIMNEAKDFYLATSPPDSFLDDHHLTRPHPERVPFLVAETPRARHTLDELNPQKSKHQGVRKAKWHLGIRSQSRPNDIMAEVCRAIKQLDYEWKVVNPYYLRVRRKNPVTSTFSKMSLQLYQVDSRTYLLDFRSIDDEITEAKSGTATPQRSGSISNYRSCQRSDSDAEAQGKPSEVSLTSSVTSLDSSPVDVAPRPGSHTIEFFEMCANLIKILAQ
native rat liver AMPK, sequence (Q09137 whole entry partner): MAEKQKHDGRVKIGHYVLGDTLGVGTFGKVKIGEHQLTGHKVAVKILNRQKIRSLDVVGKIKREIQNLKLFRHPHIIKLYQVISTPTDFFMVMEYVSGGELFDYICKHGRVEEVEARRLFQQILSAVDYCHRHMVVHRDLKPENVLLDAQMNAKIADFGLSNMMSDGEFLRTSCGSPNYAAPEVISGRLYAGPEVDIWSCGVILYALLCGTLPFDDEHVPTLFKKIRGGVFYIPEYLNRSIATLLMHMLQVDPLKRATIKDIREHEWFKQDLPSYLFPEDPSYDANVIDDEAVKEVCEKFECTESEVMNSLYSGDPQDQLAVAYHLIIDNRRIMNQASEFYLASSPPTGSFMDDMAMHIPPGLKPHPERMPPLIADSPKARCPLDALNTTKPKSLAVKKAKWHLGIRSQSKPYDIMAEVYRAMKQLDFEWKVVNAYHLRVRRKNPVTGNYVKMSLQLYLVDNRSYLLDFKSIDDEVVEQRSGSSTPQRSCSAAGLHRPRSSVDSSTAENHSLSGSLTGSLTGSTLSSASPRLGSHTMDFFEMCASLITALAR
native rat liver AMPK, sequence (P80385 whole entry partner): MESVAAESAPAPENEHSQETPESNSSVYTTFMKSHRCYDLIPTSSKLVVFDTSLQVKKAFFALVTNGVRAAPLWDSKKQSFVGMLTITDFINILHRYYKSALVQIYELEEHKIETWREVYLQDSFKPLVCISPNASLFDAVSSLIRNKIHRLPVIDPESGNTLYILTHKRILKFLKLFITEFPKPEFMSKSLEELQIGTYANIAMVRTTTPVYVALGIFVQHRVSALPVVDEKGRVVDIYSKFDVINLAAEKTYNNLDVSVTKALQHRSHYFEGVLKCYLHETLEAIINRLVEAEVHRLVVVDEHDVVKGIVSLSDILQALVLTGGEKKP

OC[C@H]1O[C@H](OC[C@H]2OC(O)[C@H](O)[C@@H](O)[C@@H]2O)[C@H](O)[C@@H](O)[C@@H]1O (stereo partly drawn) [isomaltose]
IC50 (native rat liver AMPK): 16 mM | inhibition of isolated α1 kinase domain [1]: did not inhibit | binding to immobilised β1-GBD (β1-GBD): bound to the β1-GBD
